From paper PMC7696741, “Synthesis, Characterization and Assessment of the Antioxidant Activity of Cu(II), Zn(II) and Cd(II) Complexes Derived from Scorpionate Ligands” (Molecules, 2020)
Like-named read-outs stand apart in the source and are kept apart here.

Tests used:
[1] = Nitric oxide scavenging activity (sodium nitroprusside / Griess reagent); type: biochemical; conditions: sodium nitroprusside in PBS, light, 150 min, 577 nm, read-out: Oxygen Species Radicals IC50, NO
Description: (§1) We have carried out both enzymatic and non-enzymatic assays to evaluate the antioxidant properties of all the synthesized scorpionate complexes of Cu(II), Zn(II) and Cd(II) (1–9). All complexes were used at an initial concentration of 2.5 mM diluted in methanol.
In order to determine the scavenging activity of the metal complexes against NO radicals, samples were added to a 96-well plate dish with a flat bottom, and were serially diluted by the same procedure used in the previous assays. In all wells, 100 μL of PBS and 50 μL of sodium nitroprusside dissolved in saline phosphate buffer (PBS), were added. The plate with the samples was incubated in the presence of light at room temperature for 150 min. Finally, an equal volume of 50 μL of Griess reagent was added to each well in order to measure the nitrite content. The plate was incubated at room temperature for 10 min until chromophore formation, and the absorbance was measured at 577 nm in a microplate reader (Molecular Devices, Sunnyvale, CA, USA).

[2] = Superoxide radicals scavenging activity (PMS-NADH/NBT system); type: biochemical; conditions: for IC50: PMS-NADH/NBT, Tris-HCl pH 8.0, absorbance 560 nm, read-out: Oxygen Species Radicals IC50, O2^−
Description: as §1
The scavenging activity of superoxide radicals was determined by the method of Liu and Ng, slightly modified by Kang and Lee. Superoxide radicals are generated in the phenazine methosulfate-nicotinamide adenine dinucleotide (PMS-NAD) system, responsible for the oxidation of NADH (reduced form of NAD) that was analyzed by reducing the nitro blue tetrazolium chloride NBT in a microplate assay.
In a 96 well plate, samples or control were subjected to a serial dilution with 20 mM Tris-HCl (pH 8.0). Superoxide radicals are generated by adding in 200 μL of 20 mM Tris-HCl (pH 8.0), containing 78 mM NADH, NBT 50 mM to each well and 10 μL are added to the various samples of PMS 10 mM. The reaction between superoxide radicals and NBT develops a blue color, whose intensity decreases proportionally in the presence of the antioxidant compound. The change in absorbance in the various wells is measured at 560 nm with a microplate reader (Molecular Devices, Sunnyvale, CA, USA). L-ascorbate was used as a positive control. The interaction relationship with the superoxide radical (%) was calculated using the following formula:superoxide radical (%) = ((A − A1)/A) × 100 where A is the absorbance of the positive control, and A1 is the absorbance of the test samples.

[3] = DPPH radical scavenging activity; type: biochemical; conditions: DPPH 100 μM in methanol, 37 °C, absorbance 490 nm
Description: as §1
The antioxidant properties of the compounds or control substances have been measured by DPPH, which is able to react with various natural or synthetic antioxidants. A dose response curve was plotted to determine the IC50 values, and the following formula was used to calculate the percentage of radical scavenging:Radical scavenging % = [(A0 − Ac)/A0] × 100 where A0 is the absorbance of the control sample, containing the reagents except the test substance, and Ac is the absorbance of the solution of the various complexes and of the control measured after 30 min of incubation at 37 °C. Any determination is performed in triplicate.
In order to determine the DPPH radical scavenging activity of different scorpionate complexes, the compounds or standards in methanol were diluted in series in the 96 well plate with a flat bottom. The solvent used is usually the same used to dissolve the samples. In various wells containing the compounds and standards, 200 μL of DPPH in methanol solution (100 μM) were added to reach a final volume of 250 μL in all wells. After incubation at 37 °C for 20 min, the absorbance of samples was determined at 490 nm (Multiskan JX, Thermo Labsystems Oy, Vantaa, Finland). Trolox was used as a control and was loaded into the plate with the same method and dilution of the samples.

[4] = Overall evaluation of scavenging (antioxidant) activity, all radical assays; type: biochemical; conditions: conclusions, all radical assays together
Description: as §1

[5] = Hydrogen peroxide radicals scavenging activity; type: biochemical; conditions: hydrogen peroxide in PBS, 10 min, 230 nm; read-out: Oxygen Species Radicals IC50, OOH
Description: as §1
In order to determine the scavenging activity of H2O2 of different complexes or standards in methanol, the compounds were diluted in series in a 96-well flat-bottom plate with the same procedure used in previous assays. Then, 200 μL of peroxide solution was added to the various wells hydrogen in PBS (final volume, 250 μL). After 10 min of incubation, the absorbance was measured at 230 nm with a microplate reader.

[6] = Hydroxyl radicals scavenging activity (L-ascorbic acid-CuSO4 / cytochrome c); type: biochemical; conditions: L-ascorbic acid-CuSO4, cytochrome c oxidation, pH 7.4, 550 nm; read-out: Oxygen Species Radicals IC50, OH
Description: as §1
The scavenging activity of superoxide radicals was determined by the method of Liu and Ng, slightly modified by Kang and Lee. Hydroxyl radicals, generated in the L-ascorbic acid-CuSO4 system, with the reduction of Cu^2+, were analyzed by the oxidation of cytochrome c in 96 microplate wells. The hydroxyl radicals were generated in 200 μL of 10 mM buffer sodium phosphate (pH 7.4), containing […], 12 μM reduced cytochrome c and the samples to be analyzed in different concentrations. The reduction of cytochrome c is produced with the addition of an excess of dithiothreitol to a solution of cytochrome c and followed by Sephadex G-15 chromatography (bed volume, 10 mL) to remove the excess of dithiothreitol.
The compounds or standards in methanol were diluted in series in a 96-well flat-bottomed plate. Stock solution was prepared in phosphate buffer (pH 7.4) containing 100 μM L-ascorbic acid and 100 μM CuSO4. Then, 200 μL of this solution was added to each well and, finally, 10 μL of 120 μM reduced cytochrome c, was added to the plate and was left to incubate for 20 min at room temperature. The change in absorbance, caused by the oxidation of cytochrome c, was measured at 550 nm with a microplate reader (Molecular Devices, Sunnyvale, CA, USA). A thiourea solution (500 μM) was used as a positive control. The scavenging activity of hydroxyl radicals of 500 […] solution of thiourea was taken as 100%. The scavenging activity of hydroxyl radicals has been calculated using the following formula:hydroxyl scavenging radicals (%) = (A − A0)/(AT − A0) × 100 where A is the absorbance of the samples, and AT and A0 is the absorbance of the thiourea and the control, respectively.

[7] = ABTS radical scavenging activity; type: biochemical; conditions: ABTS+· in methanol, 10 min dark, room temperature, absorbance 630 nm
Description: as §1
Total antioxidant activity was assessed as a measure of radical scavenging activity of the complexes examined against the cationic radical ABTS^+. The method is valid for both hydrophilic and hydrophobic antioxidants. The working solution is produced by the oxidation of an initial solution of ABTS, which is oxidized to ABTS^+· through the reaction with K2S2O8 (2.45 mM) and left in the dark for 12 h. After incubation, the ABTS^+· solution is diluted with methanol to obtain an absorbance of 0.706 ± 0.001 units at 734 nm, which is used as a solution for the analysis of scavenger activity.
Radical scavenging ability is measured with a modified method described initially by Re et al. for the application of a microplate 96 wells. Compounds or standards in methanol were diluted in series in the 96 well plate, as previously described. Trolox was used as a control and was loaded into the plate with the same method and dilution of the samples. The reaction is started with the addition of 200 μL of the ABTS^+· solution (final volume in the wells, 250 μL). The reaction mixture is allowed to stand in the dark for 10 min at room temperature, and the absorbance at 630 nm is measured (Multiskan JX, Thermo Labsystems Oy, Vantaa, Finland). The radical scavenging activity is estimated through the absorbance decrease at 630 nm and can be expressed as the equivalent Trolox.

[8] = Solubility of the isolated complexes; type: physicochemical; conditions: for Solubility in chlorinated solvents, alcohols, acetonitrile, dimethylsulfoxide and dimethylformamide: organic solvents as listed
[9] = Air and moisture stability of the isolated powders; type: physicochemical; conditions: pure powders
[10] = read-out: SOD activity IC50, cited from earlier work

Row | Compound | IC50 [1] | IC50 [2] | SOD-mimic activity, times less than native bovine Cu-Zn-SOD ([2]; ratio of superoxide IC50 to native bovine Cu-Zn-SOD (IC50 = 0.48 μM)) | IC50 [3] | Antioxidant (scavenging) activity, overall verdict [4] | IC50 [5] | IC50 [6] | IC50 [7] | Solubility in chlorinated solvents, alcohols, acetonitrile, dimethylsulfoxide and dimethylformamide [8] | Solubility in water [8] | Stability to air and moisture [9] | Solubility in most organic solvents [8] | IC50 ([10]; reported scorpionate complex ref 21) | IC50 ([10]; reported scorpionate complex ref 20) | IC50 ([10]; native enzyme, literature value ref 47)
1 | CC(C)(C)c1cc[nH]n1.CC(C)(C)c1cc[nH]n1.CC(C)(C)c1cc[nH]n1.[Cl][Cu][Cl] [Complex 3, [Cu(Hpz^t^Bu)3Cl2]] | > 5 mM | 0.233 ± 0.004 mM | 500 times | 0.0766 ± 0.0025 mM | moderate antioxidant activity | > 5 mM | > 5 mM | 0.0972 ± 0.0038 mM | soluble | insoluble | – | – | – | – | –
2 | Cc1ccc2c(cnn2[BH-](n2ncc3cc(C)ccc32)n2ncc3cc(C)ccc32)c1.Cc1ccc2c(cnn2[BH-](n2ncc3cc(C)ccc32)n2ncc3cc(C)ccc32)c1.ClCCl.[Zn+2] [Complex 4, [Zn(Tp^4Bo,5Me)2]⋅CH2Cl2] | – | – | – | – | – | – | – | – | soluble | insoluble | air and moisture stable | good solubility | – | – | –
3 | ClCCl.ClCCl.ClCCl.ClCCl.[Zn+2].c1ccc2c(c1)CCc1cn([BH-](n3cc4c(n3)-c3ccccc3CC4)n3cc4c(n3)-c3ccccc3CC4)nc1-2.c1ccc2c(c1)CCc1cn([BH-](n3cc4c(n3)-c3ccccc3CC4)n3cc4c(n3)-c3ccccc3CC4)nc1-2 [Complex 5, [Zn(Tp^a)2]⋅4CH2Cl2] | – | – | – | – | moderate antioxidant activity | – | – | – | soluble | insoluble | air and moisture stable | good solubility | – | – | –
4 | Cc1ccc2c(cnn2[BH-](n2ncc3cc(C)ccc32)n2ncc3cc(C)ccc32)c1.Cc1ccc2c(cnn2[BH-](n2ncc3cc(C)ccc32)n2ncc3cc(C)ccc32)c1.[Cd+2] [Complex 7, [Cd(Tp^4Bo,5Me)2]] | > 5 mM | > 5 mM | – | > 5 mM | – | > 5 mM | > 5 mM | > 5 mM | soluble | insoluble | air and moisture stable | good solubility | – | – | –
5 | CC(C)(C)c1cc[nH]n1.CC(C)(C)c1ccn([BH2-]n2ccc(C(C)(C)C)n2)n1.[Cl][Cd+] [Complex 9, [Cd(Bp^t^Bu)(Hpz^t^Bu)Cl]] | > 5 mM | > 5 mM | – | > 5 mM | moderate antioxidant activity | > 5 mM | > 5 mM | 0.151 ± 0.0042 mM | soluble | insoluble | – | – | – | – | –
6 | Cc1c(C)c2c(c(C)c1O)CCC(C)(C(=O)O)O2 (stereo not shown) [Trolox, reference compound] | > 5 mM | > 5 mM | – | 0.0199 ± 0.0015 mM | – | > 5 mM | > 5 mM | 0.00401 ± 0.0007 mM | – | – | – | – | – | – | –
7 | O=C(O)c1ccc(P(c2ccccc2)c2ccccc2)cc1.O=C(O)c1ccc(P(c2ccccc2)c2ccccc2)cc1.[Cu+].c1cnn([B-](n2cccn2)(n2cccn2)n2cccn2)c1 [[Cu(PPh2(4-C6H4COOH))2(pzTp)]] | – | – | – | – | – | – | – | – | – | – | – | – | 0.0046 mM | – | –
8 | Brc1cnn([BH-](n2cc(Br)cn2)n2cc(Br)cn2)c1.O=C(O)c1ccc(P(c2ccccc2)c2ccccc2)cc1.[Cu+] [[Cu(PPh2(4-C6H4COOH))(Tp^4Br)]] | – | – | – | – | – | – | – | – | – | – | – | – | – | 0.0062 mM | –
9 | [Zn(Tp^t^Bu)Cl] [Complex 6] | > 5 mM | > 5 mM | – | > 5 mM | – | > 5 mM | > 5 mM | 0.0579 ± 0.0034 mM | soluble | insoluble | – | – | – | – | –
10 | native bovine Cu-Zn-SOD: native bovine copper-zinc superoxide dismutase enzyme | – | – | – | – | – | – | – | – | – | – | – | – | – | – | 0.00048 mM
